For this test, the system named is B6C3F1 mice, B16 melanoma ip, median survival T/C. Description: NCI In Vivo Anticancer Drug Screen. Data for tumor model B16 Melanoma (intraperitoneal) in B6C3F1 mice. The conditions noted are these: endpoint: median survival time, higher = longer survival. A digest of the protocol: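 Readout: survival or tumor size in treated mice relative to vehicle controls (T/C). Model uses transplantable tumors grown in mice.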

Where [1] appears, read: dose: 6.25 mg/kg/injection, schedule: Q01DX009 (ip), vehicle: saline with Tween-80.
[2] abbreviates: dose: 12.5 mg/kg/injection, schedule: Q01DX009 (ip), vehicle: saline with Tween-80.
Setting [3] is: dose: 25.0 mg/kg/injection, schedule: Q01DX009 (ip), vehicle: saline with Tween-80.
Where [4] appears, read: dose: 50.0 mg/kg/injection, schedule: Q01DX009 (ip), vehicle: saline with Tween-80.
The mark [5] stands for this setting: dose: 50.0 mg/kg/injection, schedule: Q01DX009 (ip), vehicle: saline.
The mark [6] stands for this setting: dose: 100.0 mg/kg/injection, schedule: Q01DX009 (ip), vehicle: saline.
Where [7] appears, read: dose: 3.12 mg/kg/injection, schedule: Q01DX009 (ip), vehicle: saline with Tween-80.
The mark [8] stands for this setting: dose: 100.0 mg/kg/injection, schedule: Q01DX009 (ip), vehicle: saline with Tween-80.
Setting [9] is: dose: 200.0 mg/kg/injection, schedule: Q01DX009 (ip), vehicle: saline with Tween-80.

Values joined by “and” are separate entries in the source; they are usually repeats but may differ in a detail not shown here. Identical values can stand only once. Inconclusive results and toxic doses are left out.

With `CCOC(=O)C(CC(C)C)NC(=O)C(N)Cc1ccc(N(CCCl)CCCl)cc1` (stereo not drawn), the T/C is, setting by setting: (dose: 1.25 mg/kg/injection, schedule: Q01DX009 (ip), vehicle: water) 113 % of control; (dose: 2.5 mg/kg/injection, schedule: Q01DX009 (ip), vehicle: water) 113 % of control and 102 % of control.

As to `CCc1cc2c(cc1C(C)=O)C(C)(C)CCC2(C)C`, the T/C is, setting by setting: under setting [1], 89 % of control; under setting [2], 95 % of control; under setting [3], 106 % of control.

`Cc1ccc(C(=O)OC(C(=O)O)C(OC(=O)c2ccc(C)cc2)C(=O)O)cc1` (stereo not drawn) (tested in a mixture with another compound): the T/C is 93 % of control (dose: 6.25 mg/kg/injection, schedule: Q01DX009 (ip), vehicle: other); 91 % of control (dose: 12.5 mg/kg/injection, schedule: Q01DX009 (ip), vehicle: other); 111 % of control (dose: 25.0 mg/kg/injection, schedule: Q01DX009 (ip), vehicle: other).

`Cc1c2ccccc2cc2cccc[n+]12`: the T/C is 106 % of control and 107 % of control (dose: 2.5 mg/kg/injection, schedule: Q01DX009 (ip), vehicle: saline); 101 % of control and 104 % of control (dose: 5.0 mg/kg/injection, schedule: Q01DX009 (ip), vehicle: saline); 102 % of control and 107 % of control (dose: 10.0 mg/kg/injection, schedule: Q01DX009 (ip), vehicle: saline); 99 % of control and 101 % of control (dose: 20.0 mg/kg/injection, schedule: Q01DX009 (ip), vehicle: saline).

Consider `[NH-]C(CCC(N)=O)C(=O)O.[NH-]C(CCC(N)=O)C(=O)O.[Zn+2]` (stereo not drawn), for which the T/C is, setting by setting: under setting [1], 95 % of control; under setting [2], 93 % of control; under setting [3], 98 % of control; under setting [4], 90 % of control.

As for `COC(=O)C(N)Cc1ccc(O)c(O)c1` (stereo not drawn), the T/C was 102 % of control (dose: 12.5 mg/kg/injection, schedule: Q01DX009 (ip), vehicle: saline); 88 % of control and 102 % of control (dose: 25.0 mg/kg/injection, schedule: Q01DX009 (ip), vehicle: saline); 95 % of control (dose: 25.0 mg/kg/injection, schedule: Q01DX012 (ip), vehicle: saline); 95 % of control (dose: 25.0 mg/kg/injection, schedule: Q01DX024 (ip), vehicle: saline); 112 % of control (dose: 25.0 mg/kg/injection, schedule: Q08HX120 (ip), vehicle: saline); 90 % of control and 100 % of control under setting [5]. Besides, the T/C runs as follows: (dose: 50.0 mg/kg/injection, schedule: Q01DX012 (ip), vehicle: saline) 94 % of control; (dose: 50.0 mg/kg/injection, schedule: Q01DX024 (ip), vehicle: saline) 97 % of control; under setting [6], 94 % of control and 98 % of control and 106 % of control; (dose: 100.0 mg/kg/injection, schedule: Q01DX012 (ip), vehicle: saline) 94 % of control and 101 % of control; (dose: 100.0 mg/kg/injection, schedule: Q01DX024 (ip), vehicle: saline) 91 % of control and 99 % of control; (dose: 100.0 mg/kg/injection, schedule: Q08HX120 (ip), vehicle: saline) 109 % of control. In addition, the T/C is 91 % of control (dose: 100.0 mg/kg/injection, schedule: Q#A X040 (ip), vehicle: saline); 111 % of control and 103 % of control and 106 % of control (dose: 200.0 mg/kg/injection, schedule: Q01DX009 (ip), vehicle: saline); 96 % of control and 105 % of control (dose: 200.0 mg/kg/injection, schedule: Q01DX012 (ip), vehicle: saline); 97 % of control and 106 % of control (dose: 200.0 mg/kg/injection, schedule: Q01DX024 (ip), vehicle: saline); 110 % of control (dose: 200.0 mg/kg/injection, schedule: Q08HX120 (ip), vehicle: saline); 100 % of control (dose: 200.0 mg/kg/injection, schedule: Q#A X040 (ip), vehicle: saline). Further, the T/C (dose: 400.0 mg/kg/injection, schedule: Q01DX009 (ip), vehicle: saline) was 117 % of control and 100 % of control and 105 % of control; the T/C (dose: 400.0 mg/kg/injection, schedule: Q01DX012 (ip), vehicle: saline) was 117 % of control and 102 % of control; the T/C (dose: 400.0 mg/kg/injection, schedule: Q01DX024 (ip), vehicle: saline) was 108 % of control and 104 % of control; the T/C (dose: 400.0 mg/kg/injection, schedule: Q#A X040 (ip), vehicle: saline) was 95 % of control; the T/C (dose: 600.0 mg/kg/injection, schedule: Q#A X040 (ip), vehicle: saline) was 95 % of control; the T/C (dose: 800.0 mg/kg/injection, schedule: Q01DX009 (ip), vehicle: saline) was 117 % of control. Moreover, the T/C (dose: 800.0 mg/kg/injection, schedule: Q01DX012 (ip), vehicle: saline) was 116 % of control.

In the case of `CC1=NN(c2cccc(S(=O)(=O)O)c2)C(=O)C1N=Nc1cc(Cl)cc(S(=O)(=O)O)c1O.CC1=NN(c2cccc(S(=O)(=O)O)c2)C(=O)C1N=Nc1cc(Cl)cc(S(=O)(=O)O)c1O.[Cr]` (stereo not drawn), the T/C by setting is: under setting [5], 91 % of control; under setting [6], 91 % of control.

Take `NC(=S)c1ncn(C2OC(COC=O)C(OC=O)C2OC=O)c1NC=O` (stereo not drawn): the T/C by setting is: (dose: 25.0 mg/kg/injection, schedule: Q01DX009 (ip), vehicle: Klucel (hydroxypropylcellulose) (HPC)) 100 % of control; (dose: 50.0 mg/kg/injection, schedule: Q01DX009 (ip), vehicle: Klucel (hydroxypropylcellulose) (HPC)) 100 % of control; (dose: 100.0 mg/kg/injection, schedule: Q01DX009 (ip), vehicle: Klucel (hydroxypropylcellulose) (HPC)) 92 % of control; (dose: 200.0 mg/kg/injection, schedule: Q01DX009 (ip), vehicle: Klucel (hydroxypropylcellulose) (HPC)) 87 % of control.

On to `F[B-](F)(F)F`, for which the T/C is 99 % of control (dose: 12.5 mg/kg/injection, schedule: Q01DX009 (ip), vehicle: gum acacia); 118 % of control (dose: 25.0 mg/kg/injection, schedule: Q01DX009 (ip), vehicle: gum acacia); 100 % of control and 106 % of control (dose: 50.0 mg/kg/injection, schedule: Q01DX009 (ip), vehicle: gum acacia); 98 % of control and 106 % of control (dose: 100.0 mg/kg/injection, schedule: Q01DX009 (ip), vehicle: gum acacia); 108 % of control and 112 % of control (dose: 200.0 mg/kg/injection, schedule: Q01DX009 (ip), vehicle: gum acacia); 93 % of control and 99 % of control (dose: 400.0 mg/kg/injection, schedule: Q01DX009 (ip), vehicle: gum acacia).

As to `C=C1C(=O)C23[C@H](O)C1CC[C@H]2[C@]12COC3(O)[C@@H](O)[C@@H]1C(C)(C)CC[C@@H]2O`, the T/C is 98 % of control (dose: 1.56 mg/kg/injection, schedule: Q01DX009 (ip), vehicle: saline with Tween-80); 106 % of control under setting [7]; 97 % of control (dose: 4.5 mg/kg/injection, schedule: Q01DX009 (ip), vehicle: Klucel (hydroxypropylcellulose) (HPC)); 115 % of control under setting [1]; 93 % of control (dose: 9.0 mg/kg/injection, schedule: Q01DX009 (ip), vehicle: Klucel (hydroxypropylcellulose) (HPC)); 108 % of control under setting [2]. In addition, the T/C is, setting by setting: (dose: 18.0 mg/kg/injection, schedule: Q01DX009 (ip), vehicle: Klucel (hydroxypropylcellulose) (HPC)) 99 % of control; under setting [3], 98 % of control.

`Cc1ccc(NCC2(/N=C/c3ccccc3)OC(CO)C(O)C2O)cc1` (stereo not drawn): the T/C (dose: 400.0 mg/kg/injection, schedule: Q01DX009 (ip), vehicle: Klucel (hydroxypropylcellulose) (HPC)) is 161 % of control.

Regarding `ClC(Cl)(Cl)Sn1cccn1`, the T/C runs as follows: under setting [7], 103 % of control; under setting [1], 87 % of control; under setting [5], 87 % of control.

Take `CC[C@@]1(O)C[C@H](OC2CC(N(C)C)C(OC3CC(O)C(OC4CCC(=O)C(C)O4)C(C)O3)C(C)O2)c2c(cc3c(c2O)C(=O)c2c(O)cccc2C3=O)[C@H]1C(=O)OC` (stereo partly drawn): under “dose: 3.0 mg/kg/injection, schedule: Q01DX009 (ip), vehicle: saline with Tween-80”, the T/C was 151 % of control.

`Nc1nc(N)c(N=O)c(Nc2ccc(I)cc2)n1`: the T/C is 115 % of control under setting [4], 110 % of control under setting [8] and 98 % of control under setting [9].

For the compound `S=c1sc2ccccc2n1CN1CCOCC1`, the T/C runs as follows: under setting [2], 99 % of control and 102 % of control; (dose: 18.0 mg/kg/injection, schedule: Q01DX009 (ip), vehicle: saline with Tween-80) 89 % of control; under setting [3], 109 % of control and 112 % of control; (dose: 30.0 mg/kg/injection, schedule: Q01DX009 (ip), vehicle: saline with Tween-80) 91 % of control; under setting [4], 113 % of control and 100 % of control; (dose: 83.33 mg/kg/injection, schedule: Q01DX009 (ip), vehicle: saline with Tween-80) 100 % of control. Besides, the T/C under setting [8] was 102 % of control and 105 % of control; the T/C (dose: 138.88 mg/kg/injection, schedule: Q01DX009 (ip), vehicle: saline with Tween-80) was 106 % of control; the T/C under setting [9] is 95 % of control and 101 % of control.

The values are drawn from PubChem BioAssay AID200 (DTP/NCI, 2004).
